Reference: patent US10413583B2, “Synthetic substrates for enzymes that catalyze reactions of modified cysteines and related methods” (The University of Chicago, priority 2016, dated 2019)

Tested on: HEK293T cells
Assay: Live cell fluorescence imaging and flow cytometry of DPP-2 and DPP-3 in HEK293T cells
Assay type: cell-based, human
Conditions: for effect of inhibitor on DPP-3 signal: 1 μM PalmB, 1 μM ML348, 1 or 5 μM ML349 (FIGS. 10, 11)
Description: HEK293T (650,000 cells per dish) cells were plated with 1.5 mL of Dulbecco's Modified Eagle Medium (DMEM) (High Glucose, 10% fetal bovine serum (FBS)) in a 35 mm glass bottom dish (D35-10-1.5-N; Cellvis, Mountain View, Calif., United States of America) 24 hrs prior to imaging. 30 min before the addition of the DPP probe, the cell culture media was removed and cells were washed with 1 mL of Delbecco's phosphate-buffered saline (DPBS). The media was then replaced with 1 mL of DMEM containing 1 μM Hoechst 33342 and either 0.1% DMSO carrier as a control, 1 or 2 μM Palm B, 0.1, 1.0, or 5 μM ML348, and incubated for 30 min at 37° C. and 5% CO2. The media was removed, the cells were washed with 1 mL of Live Cell Imaging Solution (Thermo Fisher Scientific, Waltham, Mass., United States of America), and 1 mL of 1 μM DPP-2 or DPP-3 in Live Cell Imaging Solution was added to each plate. For ML348 0.1, 1.0, or 5 μM was added along with DPP-2 or DPP-3. After incubation for 15 min at 37° C. and 5% CO2, images were obtained on an inverted epi-fluorescence microscope (Olympus IX83; Olympus Corporation, Tokyo, Japan) attached with EMCCD camera (Photometrics EVOLVE™ Delta; Photometrics, Tucson, Ariz., United States of America) with 40× oil objective (N/A 1.3) for DPP-2 (excitation filter 500/20, dichroic chroma 89007, emission filter 535/30, exposure time 200 ms, EM gain 25), Hoechst 33342: (excitation filter 402/15, emission filter 455/50, dichroic chroma 89013, exposure time 30 ms, EM gain 25), and brightfield (exposure time 5 ms, EM gain 5), and for DPP-3 (exposure time 500 ms, EM gain 150), Hoechst 33342: (exposure time 30 ms, EM gain 25), and brightfield (exposure time 20 ms, EM gain 5). Analyses were performed in ImageJ. For data analysis, the average fluorescence intensity per image in each experimental condition was obtained by selecting regions of interest (ROIs) in the brightfield image. For display, the data were normalized to the average fluorescence intensity of the control conditions. Each experiment was repeated at least three separate times with identical results.
Cells were plated on a 10 cm dish with 10 mL of DMEM/High Glucose (10% FBS, 1% P/S, L-Glutamine, Sodium pyruvate) 36-48 hours prior to the day of experiment and maintained at 37° C., 5% CO2 so as to obtain 80-90% confluency. Cells were washed with DPBS and trypsinized with 1 mL 0.05% Trypsin. 5 mL of DMEM/High Glucose (10% FBS, L-Glutamine, Sodium pyruvate) was added and cells were spun down at 1200 rpm for 3 min. Media was discarded and cells were resuspended in 5 mL of Live Cell Imaging Solution and again spun down at 1200 rpm for 3 min. The cells pellets obtained were resuspended in 3-5 mL of Live Cell Imaging Solution and divided into 500 μL aliquots. The aliquots were treated with either 0.2% DMSO carrier or 1 μM of PalmB/ML348 or 1 μM/5 μM of ML349 inhibitor. After 30 min of incubation at room temperature, 1 μL of 2.5 mM DPP-3 in DMSO was added to each aliquot for a final concentration of 5 μM, and the solutions were mixed. After 5 min incubation at room temperature, fluorescence signal in FITC channel was measured for 10000 cells (5000 for HeLa experiments) on a LSR-Fortessa 4-15 HTS (BD digital instrument, 488 nm laser with 530/30 nm filter for FITC; BD, Franklin Lakes, N.J., United States of America). For analyzing DPP2 in HEK293T cells, the aliquots were treated with either 0.2% DMSO carrier or 2 μM of PalmB, 5 or 20 μM of ML348/ML349 and then analyzed by the protocol as mentioned above. Data was analyzed by FlowJo software version 10.0.8. For comparison of A431 starved versus non-starved, parallel 10 cm dishes of A431 cells were plated in 10 mL of DMEM (high glucose, 10% FBS, 1% P/S), and grown for 36 h. The growth media was removed, and replaced by 10 mL of either DMEM (High glucose) with 10% FBS to maintain “growth” conditions, or DMEM (High glucose) without FBS respectively for “starvation” conditions, and incubated for 14 h. […]

SMILES: COc1ccc(N2CCN(C(=O)c3cc4c(s3)-c3ccccc3S(=O)(=O)C4)CC2)cc1 [ML349]
- effect of inhibitor on DPP-3 signal: not substantially perturbed
- effect of inhibitor on DPP-2 fluorescent signal (5 μM inhibitor): perturbed

SMILES: O=C(CN1CCN(C(=O)c2ccco2)CC1)Nc1cc(C(F)(F)F)ccc1Cl [ML348]
- effect of inhibitor on DPP-3 signal: lower amounts of PalmB or ML348 were needed to perturb the signal
- effect of inhibitor on DPP-2 fluorescent signal (5 μM inhibitor): perturbed

SMILES: CCCCCCCCCC[C@@H]1C(=O)O[C@H]1CCc1ccc(OC)c(OC)c1 [PalmB, palmostatin B]
- effect of inhibitor on DPP-3 signal: lower amounts of PalmB or ML348 were needed to perturb the signal
- effect of inhibitor on DPP-2 fluorescent signal (2 μM inhibitor): perturbed
